Tests used:
[1] = tested on: mixed culture of 9L and 9L-ZP cells; experiment: Cytotoxicity toward mixed cultures; assay type: cell-based, rat; conditions: 10 μM metyrapone
Protocol: FIG. 28 is a bar graph depicting the cytotoxicity of oxazaphosphorines toward mixed cultures of 9L and 9L-ZP cells. Equal numbers of parental 9L cells were mixed with 9L-ZP cells (total initial cell number=1×10^5 /30 mm tissue culture dish). […] Cell numbers were determined 5 days after beginning drug treatment. Data (mean ±range of duplicates) are expressed as growth ratio (%) relative to drug-free controls.
(§1) To test for drug sensitivity, 1×10^5 cells were plated in 30-mm tissue culture plates (Falcon 3046) in duplicate. Drugs were added 18-24 hours after seeding. Cells were allowed to grow for times ranging up to 5 days after drug treatment, and the final cell number was then determined. Cells were rinsed with phosphate buffered saline or Hank's buffered saline, dispersed using trypsin-EDTA (GIBCO/BRL, Inc.), and then counted with a hemocytometer. Results are expressed as a growth ratio, i.e., the number of cells in plates containing drug as a percentage of the corresponding drug-free controls (mean±range of duplicate determinations).

9L-ZP cells = experiment: Drug sensitivity of cultured 9L cells with or without metyrapone; conditions: 10 μM metyrapone
[2] = tested on: parental 9L cells co-cultured with 9L-ZP cells; experiment: Co-culture experiments with culture inserts; assay type: cell-based, rat; conditions: 10 μM metyrapone
Protocol: Co-culture Experiments: Parental 9L cells were plated in the bottom wells of culture plates (Falcon 3502), and cytochrome P450 2B1-negative or cytochrome P450 2B1-positive cells were plated into 25 mm cell culture inserts (0.45 μm pore size, Falcon 3090). Culture media were removed 18-24 hours later by aspiration. Culture medium without drug (1.0 mL) was added to the bottom well, and 1.0 mL medium containing drug was added to the upper cell culture insert. Cell numbers were determined 5 days later, as described above.

[3] = tested on: C6 cells exposed to CM from C6; experiment: C6 colony formation after conditioned medium from drug-exposed cells; assay type: cell-based, rat; conditions: Table V panel C; CM from treated C6 cultures
C6 cells [4] = experiment: Cell proliferation assay; assay type: cell-based, rat; conditions: 0.5 mM, four days
Protocol: Cell proliferation assays: For cell proliferation assays, cells (2×10^5 per dish, unless otherwise noted) were plated onto 10 cm dishes. […] Incubations were continued for four days and cell numbers were assayed using a Coulter counter (Coulter Electronics Inc.), after harvesting in trypsinEDTA.

C6 cells [5] = experiment: Trypsinization and replating assay; assay type: cell-based, rat; conditions: Table V panel B; survivors of panel A replated, nine days
Protocol: Trypsinization and replating assay: To determine the temporal kinetics of CPA-mediated cytotoxicity, 2×10^6 cells were plated onto each 10 cm dish. Twenty-four hours later, 0.5 mM CPA was added and cells were incubated for the times indicated in each figure. Cells were then trypsinized and replated at a density of 2×10^5 cells/10 cm dish. Nine days later, cell numbers were evaluated by Coulter counting.

[6] = tested on: cytochrome P450 2B1-positive cells (9L-ZP and L450-2); conditions: 5 days
[7] = tested on: cytochrome P450 2B1-negative cells (parental 9L and 9L-Z); experiment: Drug sensitivity of cultured 9L cells; assay type: cell-based, rat; conditions: 5 days
Protocol: as §1

CC(C)(C(=O)c1cccnc1)c1cccnc1 [metyrapone]
Effect on cyclophosphamide killing of mixed culture [1]: largely abrogate | Effect on cytotoxic effect of 4-hydroperoxy cyclophosphamide (9L-ZP cells; 10 μM 4-hydroperoxy cyclophosphamide): did not block | Effect on cytotoxic effects of cyclophosphamide (9L-ZP cells; 1 mM cyclophosphamide): nearly eliminated | Effect on cytotoxic effects of ifosphamide (9L-ZP cells; 2 mM ifosphamide): nearly eliminated | Effect on cyclophosphamide killing of both cell populations [2]: effectively blocked

CCN(CC)P1(=O)NCCCO1 (centres unmarked) [DCPA, didechlorocyclophosphamide]
Secretion effect, C6 colony number [3]: 301±4.6 | Effect on cell proliferation (C6 cells [4]): had no effect | Cell proliferation assay, number of cells (C6 cells [4]; Table V panel A): 21.51±0.43 ×10^6 | Trypsinization and replating assay, cell count (C6 cells [5]): 20.58±0.33

O=P1(N(CCCl)CCCl)NC(OO)CCO1 (centres unmarked) [4-hydroperoxy cyclophosphamide]
Sensitivity to activated cyclophosphamide [6]: inherently sensitive | Sensitivity to activated cyclophosphamide [7]: inherently sensitive

From patent publication US5688773A, “Method of selectively destroying neoplastic cells” (priority 1994, dated 1997)
